# Legend:
# MK2 [1] = system: MK2; set-up: method as in PMID 24900358; details: @100 μM ATP; cited from earlier work
# MK2 [2] = target: MK2 (Homo sapiens, UniProt P49137); assay: biochemical
# MK2 [3] = target: T1, MK2 (Homo sapiens, UniProt P49137, DEL216-236/P237G); assay: kinact/KI from time- and concentration-dependent intact protein MS
# Method: Determination of Kinetic Parameters
# kinact/KI was measured based on time- and concentration-dependent analysis of intact protein
# mass spectra using the bimolecular model described by the equations seen below, as reported
# [PI]: concentration of the protein-compound complex, [PI*]: concentration
# of the covalent protein-compound complex, [PI*] ≈ [PI] if kinact is relatively high. [P]0, [I]0:
# concentration of initial protein and compound. t: incubation time(s).
# When reaching each time point of incubation
# (15 min, 30 min, 60 min, 120 min, 180 min), an aliquot of the reaction mixture was transferred into
# 1 % formic acid in ddH2O using a multichannel pipette (10 µL of sample added to 90 µL
# ddH2O/1% formic acid), to stop the reaction at the exact time point. MS was performed and %
# occupancy was calculated in the same way (see equations below).
# time- and concentration -dependent % occupancy: import data as XY table. A nonlinear
# regression fit was chosen to fit the curves, kinact/KI was set up as the constraint type of “Shared
# value for all datasets”, initial value as 0, the rest settings are as default.
# 𝑂𝑐𝑐𝑢𝑝𝑎𝑛𝑐𝑦 [%] = 𝐼𝑚𝑜𝑑 × 100
# [𝑃𝐼 ] = [𝑃]0[𝐼]0 ([𝑃] −[𝐼] )×𝑘 /𝐾 ×𝑡
# 𝑂𝑐𝑐𝑢𝑝𝑎𝑛𝑐𝑦 [%] = [𝑃𝐼] × 100
# MK2 [4] = target: T1, MK2; assay: intact protein MS with MK2 (covalent modification); details: for Ratio [%] (AUC[mod]/(AUC[unmod]+AUC[mod])): 50 µM protein, 250 µM compound, room temperature, 3 hours, relative quantification from deconvoluted spectra; for covalent modification of MK2 (covalent binding): 5-fold excess compound over MK2, rt, 3 h
# JAK3 [5] = target: T2, JAK3 (Homo sapiens, UniProt P52333); details: JAK3 ELISA, same assay conditions (starting at 10 μM)
# T2 sequence (P52333 1-1124): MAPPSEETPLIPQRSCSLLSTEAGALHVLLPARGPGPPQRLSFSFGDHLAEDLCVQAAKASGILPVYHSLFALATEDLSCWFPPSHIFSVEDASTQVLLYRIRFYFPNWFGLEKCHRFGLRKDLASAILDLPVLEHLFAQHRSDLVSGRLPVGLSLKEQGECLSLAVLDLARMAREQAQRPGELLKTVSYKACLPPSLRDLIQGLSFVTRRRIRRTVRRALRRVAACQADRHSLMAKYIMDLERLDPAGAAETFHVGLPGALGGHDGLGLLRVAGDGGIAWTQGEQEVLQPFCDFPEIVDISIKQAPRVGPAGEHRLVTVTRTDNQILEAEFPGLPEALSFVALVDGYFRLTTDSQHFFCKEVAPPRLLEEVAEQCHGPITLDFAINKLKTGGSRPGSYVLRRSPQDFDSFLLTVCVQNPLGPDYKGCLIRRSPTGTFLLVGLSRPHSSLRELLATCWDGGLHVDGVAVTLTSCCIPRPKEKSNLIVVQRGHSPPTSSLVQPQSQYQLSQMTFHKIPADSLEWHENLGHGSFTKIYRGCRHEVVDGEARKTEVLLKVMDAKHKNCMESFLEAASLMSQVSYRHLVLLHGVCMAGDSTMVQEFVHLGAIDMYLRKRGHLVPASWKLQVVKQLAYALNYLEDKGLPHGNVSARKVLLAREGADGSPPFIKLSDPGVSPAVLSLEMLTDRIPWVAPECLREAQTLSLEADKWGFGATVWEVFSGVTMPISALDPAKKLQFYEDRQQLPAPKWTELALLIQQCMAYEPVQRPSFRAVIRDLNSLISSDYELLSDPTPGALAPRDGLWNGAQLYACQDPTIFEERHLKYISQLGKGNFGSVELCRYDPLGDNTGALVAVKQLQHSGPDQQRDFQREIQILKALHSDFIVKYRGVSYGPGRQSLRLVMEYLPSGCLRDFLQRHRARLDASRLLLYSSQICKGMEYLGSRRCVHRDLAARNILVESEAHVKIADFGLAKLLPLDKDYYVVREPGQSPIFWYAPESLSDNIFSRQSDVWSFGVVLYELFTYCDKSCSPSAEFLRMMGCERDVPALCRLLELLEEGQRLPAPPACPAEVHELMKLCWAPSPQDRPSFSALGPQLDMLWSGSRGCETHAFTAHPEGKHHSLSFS
# solubility observation = assay type: physicochemical
# Source text: While the warhead now cannot rotate away anymore, it also is very limited in the trajectory it can assume prior to/during the bond-forming event. On the other hand, the tyrosine side chain is also a rather rigid structure (especially considering the degrees of freedom of cysteine or e.g. lysine in comparison) and if two very rigid structures are supposed to react with each other, a proper pre-orientation and a binding mode that enables a strain-free reaction trajectory play a much bigger role than for the reaction of two more flexible moieties like, for example, acrylamide and cysteine.
# [6] = buffer stability at pH 7.4 (HPLC); assay type: physicochemical; details: pH 7.4, over the incubation time
# JAK3 [7] = target: T2, JAK3; assay: biochemical
# MK2 (Homo sapiens, UniProt P49137), sequence (P49137 whole entry): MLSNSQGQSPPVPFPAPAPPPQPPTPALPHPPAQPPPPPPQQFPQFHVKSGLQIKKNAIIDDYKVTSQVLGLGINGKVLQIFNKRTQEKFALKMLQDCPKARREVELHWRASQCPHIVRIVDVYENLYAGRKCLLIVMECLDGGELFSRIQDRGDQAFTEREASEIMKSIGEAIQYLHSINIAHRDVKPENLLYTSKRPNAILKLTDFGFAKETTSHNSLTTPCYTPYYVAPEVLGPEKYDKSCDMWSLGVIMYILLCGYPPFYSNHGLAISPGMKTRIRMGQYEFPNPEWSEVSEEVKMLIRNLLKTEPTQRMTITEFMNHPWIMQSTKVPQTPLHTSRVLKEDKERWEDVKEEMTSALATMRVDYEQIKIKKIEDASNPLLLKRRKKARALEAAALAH
# T1 sequence (P49137 with tags, fused parts or gaps DEL216-236/P237G): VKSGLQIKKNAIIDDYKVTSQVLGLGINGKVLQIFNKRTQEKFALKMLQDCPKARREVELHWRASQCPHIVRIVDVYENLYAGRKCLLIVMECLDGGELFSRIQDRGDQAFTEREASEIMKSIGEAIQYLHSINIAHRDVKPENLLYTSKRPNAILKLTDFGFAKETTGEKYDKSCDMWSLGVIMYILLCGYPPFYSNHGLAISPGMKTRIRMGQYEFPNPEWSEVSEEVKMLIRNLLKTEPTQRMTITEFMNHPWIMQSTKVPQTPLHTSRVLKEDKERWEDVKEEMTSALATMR
compound,measurement,setting,value
"O=C(c1ccc(-c2ccc(Cl)cc2)o1)N(Cc1ccccn1)c1ccc(N2CCNCC2)cc1 [compound 41, reference compound]",IC50,MK2 [1],110 nM
same,IC50,MK2 [2],> 5000 nM
O=C(c1ccc(-c2ccc(Cl)c(O)c2)o1)N(Cc1ccccn1)c1ccc(N2CCNCC2)cc1 [compound 66],IC50,MK2 [2],> 5000 nM
O=C(c1ccc(-c2ccc(Cl)c(OS(=O)(=O)F)c2)o1)N(Cc1ccccn1)c1ccc(N2CCNCC2)cc1 [compound 42],kinact/KI,MK2 [3],1.12 M⁻¹ s⁻¹
same,Ratio [%] (AUC[mod]/(AUC[unmod]+AUC[mod])),MK2 [4],94.28%
same,covalent modification of MK2 (covalent binding),MK2 [4],95%
O=C(c1ccc(-c2ccc(Cl)cc2)o1)N(Cc1ccccn1)c1ccc(N2CCNCC2)c(OS(=O)(=O)F)c1 [compound 43],covalent modification of MK2 (covalent binding),MK2 [4],no binding at all
O=c1c2cc(OS(=O)(=O)F)ccc2c2cnc3[nH]ccc3c2n1C1CCCCC1 [compound 35],inhibitory activity,JAK3 [5],no relevant inhibitory activity
same,solubility,solubility observation,low solubility
CC(C)(C)OC(=O)N1CCN(c2ccc(NC(=O)c3ccc(-c4ccc(Cl)cc4)o3)cc2S(=O)(=O)F)CC1 [compound 64],covalent modification of MK2 (covalent binding),MK2 [4],15%
same,buffer stability,[6],some degradation
O=C(c1ccc(-c2ccc(Cl)cc2)o1)N(Cc1ccccn1)c1ccc(N2CCNCC2)c(S(=O)(=O)F)c1 [compound 65],Ratio [%] (AUC[mod]/(AUC[unmod]+AUC[mod])),MK2 [4],14.51%
same,covalent modification of MK2 (covalent binding),MK2 [4],15%
O=C(c1ccc(-c2ccc(Cl)cc2)o1)N(Cc1ccccn1)c1ccc(N2CCNCC2)c(O)c1 [compound 67],IC50,MK2 [2],> 5000 nM
N#Cc1cccc(-c2cn(C3CCCCC3)c3c2cnc2[nH]ccc23)c1 [compound 6],IC50,JAK3 [7],5.2 nM

# — PMC12315900, “A twist in the tale: shifting from covalent targeting of a tyrosine in JAK3 to a lysine in MK2” (RSC Medicinal Chemistry, 2025)
